In patent US11415513B2, “Method for determining the degree of sensitivity of a strain of fungus to an antifungal agent” (UNIVERSITE GRENOBLE ALPES, priority 2015, dated 2022):
≈ marks a conversion by molar mass, not a printed value.

Legend:
[1] = system: strain GRE32 of C. krusei; test: Etest method (MIC); format: cell-based, Candida krusei; conditions: RPMI medium plates, 24 h at 35° C.; for MIC: Pichia kudriavzevii; for phenotype by Etest MIC, interpretation by the EUCAST or CLSI table: fluconazole interpreted by extrapolation of the EUCAST and CLSI data for C. glabrata
Description: (§1) The Etest® method is a commercial test for determining the sensitivity of a strain, most frequently used routinely in clinical mycology laboratories.
(§2) The Etest® tests were performed according to the manufacturer's instructions. After distributing a standardised Mac Farland 0.5 inoculum (equivalent of […]) over plates of RPMI medium, said plates were incubated for 24 h at 35° C., with the exception of C. glabrata in which case the incubation was extended to 48 h so as to be able to determine the minimum inhibitory concentration (MIC).
(§3) The results of the MICs obtained were interpreted in accordance with the tables of the CLSI (Clinical and Laboratory Standards Institute) and/or of EUCAST (European Committee on Antimicrobial Susceptibility Testing) (Arendrup M C, Cuenca-Estrella M, Lass-Flörl C, Hope W W (2014) Breakpoints for antifungal agents: an update from EUCAST focussing on echinocandins against Candida spp and triazoles against Aspergillus spp. Drug Resist Updat 16(6):81-95. doi:10.1016/j.drup.2014.01.001) (cf. Table 2 taken from Maubon D, Garnaud C, Calandra T, et al. (2014) Resistance of Candida spp. to antifungal drugs in the ICU: where are we now? Intensive Care Med. doi: 10.1007/s00134-014-3404-7) which list the clinical thresholds (CBPs) for the most common species of yeast of the genus Candida as a function of different antifungal agents, or according to the table of epidemiological thresholds (ECVs).

[2] = system: strain ATCC®6258 of C. krusei; test: Sensitivity test by HCA microscopy (chitin level, Calcofluor White; cell count); format: cell-based, Candida krusei
Description: (§4) The strains of Candida were incubated beforehand at 30° C. overnight in a yeast extract medium—peptone dextrose (YPD) (1% bacto peptone, 0.5% yeast extract, 2% glucose, 1.5% agar).
(§5) Yeast colonies were then removed from YPD medium plates and suspended in a 0.9% NaCl saline solution, in which the cell concentration was estimated by optical microscopy using Kova counting slides.
(§6) A dilution was performed to obtain 15 ml of an inoculum at 3×10^6 CFU/ml, in a synthetic complete (SC) medium at pH 7 (2% glucose, 0.5% ammonium sulfate, 0.17% nitrogen-containing yeast base, 0.2% synthetic complete mixture, and 10% HEPES 1.5M pH 7.2) for C. albicans, C. parapsilosis, C. tropicalis and C. krusei, and in a solution of RPMI 1640 pH 7.3 (10% HEPES 1M pH 7.2) for C. glabrata, so as to reduce the formation of septa and clusters.
(§7) 1 ml of inoculum was then added to 2 ml of antifungal solution prepared in an SC or RPMI medium depending on the species of fungus, so as to obtain a final concentration of yeast of 10^6 CFU/ml and the desired concentration of antifungal agent according to table 1.
(§8) After homogenisation, the cultures were placed at 30° C. at 200 rpm, with the exception of cultures of C. glabrata, which were placed at 35° C. at 200 rpm, and incubated for a period of 6.5 h or 24 h.
(§9) After incubation, 100 μl of the culture of fungi obtained above were transferred in triplicate to 96-well plates, and 2.5 μl of Calcofluor White (CFW) were added to each well so as to mark the chitin of the cell walls of the yeasts.
(§10) A step of acquiring images by automated fluorescence microscopy (ScanR screening station, Olympus), using a 40× lens and a CFW filter, made it possible to obtain 30 images per well so as to capture enough cells to provide statistically significant data. These images were analysed by software (ScanR analysis software, Olympus). Firstly, the background noise was processed so as to improve the contrast between the fluorescence of the yeasts and background noise. A pixel threshold was then defined. Segmentation of the fluorescent elements present in each of the acquired images was then performed using an algorithm predefined in the software, making it possible to determine the limit of each element on the basis of the fluorescence intensity of said element. A size parameter was then applied to select the yeasts and eliminate the aggregates and the fluorescent debris.
(§11) Each element then corresponding to a yeast, it was thus possible, on the basis of these elements predefined beforehand, to define the fluorescence intensity for each of the yeasts, this intensity being directly correlated with the chitin content of their wall.
(§12) On the basis of said defined elements, it was also possible to automatically count the yeasts,
The strain ATCC®6258 of C. krusei was cultivated as described in paragraph I of the Examples section so as to obtain an inoculum at 3×10^6 CFU/ml in 15 ml of SC medium.
(§13) 2 ml of fluconazole solution prepared in the SC medium were then added to 1 ml of this inoculum so as to obtain a final concentration of yeast of 10^6 CFU/ml and of 128 μg/ml in fluconazole. […]
(§14) The chitin level in the cell wall of the yeasts was then measured by […] analysis (HCA) microscopy, as described in paragraph II of the Examples section, in triplicate for each condition of concentration of fluconazole and without fluconazole. […]

[3] = system: strain DSY296 of C. albicans; test: Etest method (MIC); format: cell-based, Candida albicans; conditions: RPMI medium plates, 24 h at 35° C.; for MIC: Candida albicans
Description: as §1, §2, §3

[4] = system: strain SC5314 of C. albicans; test: Etest method (MIC); format: cell-based, Candida albicans; conditions: RPMI medium plates, 24 h at 35° C.; for MIC: Candida albicans, SC5314
Description: as §1, §2, §3

[5] = system: strain GRE32 of C. krusei; test: Sensitivity test by HCA microscopy (chitin level, Calcofluor White; cell count); format: cell-based, Candida krusei
Description: as §4, §5, §6, §7, §8, §9, §10, §11, §12
The strain GRE32 of C. krusei was cultivated as described in paragraph I of the Examples section so as to obtain an inoculum at 3×10^6 CFU/ml in 15 ml of SC medium.
as §13, §14

[6] = vs cells in the absence of antifungal agent, 6.5 h at 30° C., SC medium, concentration gradient of Table 1

SMILES: OC(Cn1cncn1)(Cn1cncn1)c1ccc(F)cc1F [fluconazole]
- MIC [1]: 64 µg/mL (≈ 209 µM)
- phenotype by Etest MIC, interpretation by the EUCAST or CLSI table [1]: resistant
- phenotype of the strain with respect to the antifungal agent (HCA) ([2]; 6.5 h at 30° C., SC medium): resistant (an increase in the chitin level having a value less than 10% or a decrease in the chitin level of less than 20% or an unchanged chitin level)
- increase in the chitin level in the wall of the cells [2, 6]: less than 10%
- MIC [3]: 96 µg/mL (≈ 313 µM)
- phenotype by Etest MIC, interpretation by the EUCAST and CLSI tables [3]: resistant
- MIC [4]: 0.125 µg/mL (≈ 0.408 µM)
- phenotype by Etest MIC, interpretation by the EUCAST and CLSI tables [4]: sensitive
- phenotype of the strain with respect to the antifungal agent (HCA) ([5]; 6.5 h at 30° C., SC medium): resistant (an increase in the chitin level having a value less than 10% or a decrease in the chitin level of less than 20% or an unchanged chitin level)
- decrease in the chitin level in the wall of the cells [5, 6]: less than 20%

SMILES: C[C@@H](c1ncncc1F)[C@](O)(Cn1cncn1)c1ccc(F)cc1F [voriconazole]
- MIC [1]: 1 µg/mL (≈ 2.86 µM)
- phenotype by Etest MIC, interpretation by the EUCAST or CLSI table [1]: intermediate
- phenotype of the strain with respect to the antifungal agent (HCA) ([2]; 24 h at 30° C., RPMI medium): intermediate (an increase in the chitin level having a value of from 10% to a value less than 20%)
- decrease of the number of cells ([2]; vs cells in the absence of antifungal agent, 24 h at 30° C., RPMI medium): less than 0.3 log
- increase of the chitin level in the wall of the cells ([2]; vs cells in the absence of antifungal agent, 24 h at 30° C., RPMI medium, concentration gradient of Table 1): greater than or equal to 20%
- MIC [3]: 1 µg/mL (≈ 2.86 µM)
- phenotype by Etest MIC, interpretation by the EUCAST and CLSI tables [3]: resistant
- MIC [4]: 0.012 µg/mL (≈ 0.0344 µM)
- phenotype by Etest MIC, interpretation by the EUCAST and CLSI tables [4]: sensitive
- phenotype of the strain with respect to the antifungal agent (HCA) ([5]; 24 h at 30° C.): intermediate (an increase in the chitin level having a value of from 10% to a value less than 20%)
- decrease of the number of cells ([5]; vs cells in the absence of antifungal agent, 24 h at 30° C.): less than 0.3 log
- increase in the chitin level in the wall of the cells ([5]; vs cells in the absence of antifungal agent, 24 h at 30° C., inoculum in SC medium, antifungal solution in RPMI medium, concentration gradient of Table 1): greater than or equal to 20%
